Laboratory results as given in patent publication US20100310518A1, “Combinations of Flubendiamide and Beneficial Species” (Bayer CropScience AG, priority 2009, published 2010).

Columns and labels:
Myzus persicae = Myzus persicae test (drench application) on cabbage plants, with predatory bugs added; type: in vivo; conditions: flubendiamide alone, 1 mg of ai/l soil, cabbage plants (Brassica oleracea)
Description: The expected action for a given combination of two active compounds can be calculated as follows, using the formula of S. R. Colby, Weeds 15 (1967), 20-22:
• X is the kill rate, expressed as % of the untreated control, when employing active compound A at an application rate of m g/ha, m mg of ai/plant or in a concentration of m ppm, • Y is the kill rate, expressed as % of the untreated control, when employing the beneficial species at an application rate of n animals or n units, and • E is the kill rate, expressed as % of the untreated control, when employing active compound
A and beneficial species B at an application rate of m ppm, m mg of ai/plant or g/ha and n animals or units,
If the actual insecticidal or acaricidal kill rate exceeds the calculated value, the kill of the combination is superadditive, i.e. a synergistic effect is present. In this case, the actually observed kill rate must exceed the value calculated using the above formula for the expected kill rate (E). […]
After the application, the predatory bugs (Macrolophus caliginosus) are added in a defined amount. After the desired period of time, the kill of the pest in % is determined 100% means that all of the aphids have been destroyed; 0% means that none of the aphids have been destroyed.
The kill rates determined are entered into Colby's formula (see above).

Plutella xylostella = Plutella xylostella test (drench application on rock wool); type: in vivo; conditions: for Kill in % after 7^d: 1 mg of ai/plant, drench, cabbage plants
Procedure: To produce a suitable preparation of active compound, 1 part by weight of active compound is mixed with the stated amounts of solvent and emulsifier, and the concentrate is diluted with water to the desired concentration.
Cabbage plants (Brassica oleracea) are watered with an active compound preparation of the desired concentration and infected with larvae of the diamondback moth (Plutella xylostella).
After the desired period of time, the kill of the pest in % is determined 100% means that all caterpillars have been killed; 0% means that none of the caterpillars have been killed.

SMILES: Cc1cc(C(F)(C(F)(F)F)C(F)(F)F)ccc1NC(=O)c1cccc(I)c1C(=O)NC(C)(C)CS(C)(=O)=O [flubendiamide, 3-iodo-N′-(2-mesyl-1,1-dimethylethyl)-N-{4-[1,2,2,2-tetrafluoro-1-(trifluoromethyl)ethyl]-o-tolyl}phthalamide]
- Kill in % after 4^h (Myzus persicae): 45%
- systemic efficacy (Plutella xylostella; applied to soil-less substrates): surprisingly good systemic efficacy
- Kill in % after 7^d (Plutella xylostella; on rock wool): 97%
- Kill in % after 7^d (Plutella xylostella; on sandy loam (prior art)): 40%
